Starred links: 1 amine or outer side, 2 acyl side, 3 side chain; linkers in the order of their positions; H or OH if unused. Positions of bridges follow the written chain, without caps; N, C: chain ends. Non-standard residues stand in square brackets, D forms with d. Residues, ends and D or L forms follow the SMILES beside them. *: point of attachment. Butanoyl(4-(4-I-phenyl)) = O=C(CCCc1ccc(I)cc1)*; TBMB = c1c(C[*:1])cc(C[*:3])cc1C[*:2]; Palmitoyl = CCCCCCCCCCCCCCCC(=O)*; Benzoyl(3-I) = O=C(c1cccc(I)c1)*; 4Abz = Nc1ccc(C(=O)O)cc1
Legend:
Type in all cases: binding
[1] = target: T1, His-tagged integrin αVβ5 (Homo sapiens, UniProt P06756+P18084); experiment: In vitro selectivity assay, His-tag Dynabeads pulldown, integrin αVβ5; conditions: cyclo-(RGDfK) 25 μM blocking; 2 h incubation at 37 °C
T1 construct: purchased R&D Systems 2528-AV
Method: (§1) Binding assays were conducted following our previously reported method, using the Dynabeads™ His-Tag Isolation and Pulldown protocol (Thermo Fisher Scientific, Tokyo, Japan). Briefly, [^125I]bcRGDpal or [^125I]bcRGDiba (10 kBq/sample) was incubated at 37 °C for 2 h in 200 μL of incubation buffer (3.25 mM sodium phosphate, 70 mM NaCl, 0.01% Tween 20, pH 7.4) with 10 pmol of His-tagged integrin αVβ3, αVβ5, or α5β1 proteins (αVβ3: IT3-H52E3, ACRO Biosystems, Newark, DE, USA; αVβ5: 2528-AV, R&D Systems, Minneapolis, MN, USA; α5β1: CT014-H2508H, Sino Biological, Beijing, China). For the inhibition group, cyclo(RGDfK) (25 μM, S7834, Selleck, Houston, TX, USA) was preincubated with the integrin protein for 30 min at 37 °C. Next, A 2× binding buffer (100 mM sodium phosphate, 600 mM NaCl, 0.01% Tween 20, pH 8.0) was mixed with the solution at a 1:1 volume ratio and incubated with 5 μL of magnetic beads at 37 °C for 10 min to enable protein immobilization. Following immobilization, the beads were rinsed three times with the binding buffer, and radioactivity was measured using a NaI well-type scintillation counter (2480 Wizard2; PerkinElmer Japan, Yokohama, Japan). Protein binding was expressed as %dose/nmol protein.

[2] = target: T2, His-tagged integrin α5β1 (Homo sapiens, UniProt P05556+P08648); experiment: In vitro selectivity assay, His-tag Dynabeads pulldown, integrin α5β1; conditions: cyclo-(RGDfK) 25 μM blocking; 2 h incubation at 37 °C
T2 construct: purchased Sino Biological CT014-H2508H
Method: as §1

[3] = target: T3, His-tagged integrin αVβ3 (Homo sapiens, UniProt P05106+P06756); experiment: In vitro selectivity assay, His-tag Dynabeads pulldown, integrin αVβ3; conditions: for Radioactivity accumulation in αVβ3 protein: 10 kBq probe, 10 pmol His-tagged integrin, 37 °C 2 h, pH 7.4 buffer, without cyclo-(RGDfK); for Radioactivity accumulation in αVβ3 protein with cyclo-(RGDfK) blocking versus free: cyclo-(RGDfK) 25 μM preincubated 30 min at 37 °C, 2 h incubation, unpaired t-test p < 0.001
T3 construct: purchased ACRO Biosystems IT3-H52E3
Method: as §1

T3 sequence (P06756 31-992 limits assumed): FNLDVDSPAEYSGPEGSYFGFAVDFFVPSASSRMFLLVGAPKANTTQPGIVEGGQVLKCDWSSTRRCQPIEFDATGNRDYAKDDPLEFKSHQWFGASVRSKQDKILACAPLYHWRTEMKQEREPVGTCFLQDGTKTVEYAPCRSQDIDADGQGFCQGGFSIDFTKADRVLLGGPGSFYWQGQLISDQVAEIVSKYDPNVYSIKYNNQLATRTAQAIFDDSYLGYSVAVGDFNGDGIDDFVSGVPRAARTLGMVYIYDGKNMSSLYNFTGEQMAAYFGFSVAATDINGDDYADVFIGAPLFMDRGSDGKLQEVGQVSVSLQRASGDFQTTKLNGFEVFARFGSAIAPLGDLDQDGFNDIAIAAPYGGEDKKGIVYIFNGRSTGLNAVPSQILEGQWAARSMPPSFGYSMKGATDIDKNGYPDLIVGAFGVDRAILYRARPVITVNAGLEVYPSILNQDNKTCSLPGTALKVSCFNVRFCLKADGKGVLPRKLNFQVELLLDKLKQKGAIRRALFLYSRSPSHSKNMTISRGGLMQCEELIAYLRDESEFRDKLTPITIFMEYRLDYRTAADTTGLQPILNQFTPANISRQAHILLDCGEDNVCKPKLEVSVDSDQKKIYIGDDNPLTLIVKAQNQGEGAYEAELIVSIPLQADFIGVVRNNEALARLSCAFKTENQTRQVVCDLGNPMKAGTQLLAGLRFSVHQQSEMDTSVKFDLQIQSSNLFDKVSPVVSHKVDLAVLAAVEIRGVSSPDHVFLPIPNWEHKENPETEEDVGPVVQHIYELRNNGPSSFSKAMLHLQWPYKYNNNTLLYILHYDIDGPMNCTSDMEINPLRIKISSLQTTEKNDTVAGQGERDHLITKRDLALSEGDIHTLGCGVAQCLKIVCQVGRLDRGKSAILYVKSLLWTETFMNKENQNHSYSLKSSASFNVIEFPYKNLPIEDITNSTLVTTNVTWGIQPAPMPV
T3 sequence (P05106 27-718 limits assumed): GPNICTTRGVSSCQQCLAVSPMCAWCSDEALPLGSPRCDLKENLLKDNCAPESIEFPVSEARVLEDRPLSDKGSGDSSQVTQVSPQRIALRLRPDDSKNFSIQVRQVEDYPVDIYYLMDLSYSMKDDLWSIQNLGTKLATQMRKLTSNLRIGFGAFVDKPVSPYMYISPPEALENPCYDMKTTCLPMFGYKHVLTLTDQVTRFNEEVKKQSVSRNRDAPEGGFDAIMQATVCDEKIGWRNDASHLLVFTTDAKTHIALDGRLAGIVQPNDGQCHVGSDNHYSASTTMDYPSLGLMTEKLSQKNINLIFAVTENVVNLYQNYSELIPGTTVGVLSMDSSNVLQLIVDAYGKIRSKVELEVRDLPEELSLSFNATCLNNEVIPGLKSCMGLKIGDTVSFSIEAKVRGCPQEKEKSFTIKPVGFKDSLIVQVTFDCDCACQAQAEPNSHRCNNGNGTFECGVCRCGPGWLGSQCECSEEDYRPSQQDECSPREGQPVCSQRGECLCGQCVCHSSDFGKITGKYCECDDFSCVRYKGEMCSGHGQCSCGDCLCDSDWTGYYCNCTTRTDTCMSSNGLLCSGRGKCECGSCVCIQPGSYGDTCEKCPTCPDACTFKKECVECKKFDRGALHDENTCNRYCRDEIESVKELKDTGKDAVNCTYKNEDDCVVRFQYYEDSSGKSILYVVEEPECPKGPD
T2 sequence (P08648 42-995 limits assumed): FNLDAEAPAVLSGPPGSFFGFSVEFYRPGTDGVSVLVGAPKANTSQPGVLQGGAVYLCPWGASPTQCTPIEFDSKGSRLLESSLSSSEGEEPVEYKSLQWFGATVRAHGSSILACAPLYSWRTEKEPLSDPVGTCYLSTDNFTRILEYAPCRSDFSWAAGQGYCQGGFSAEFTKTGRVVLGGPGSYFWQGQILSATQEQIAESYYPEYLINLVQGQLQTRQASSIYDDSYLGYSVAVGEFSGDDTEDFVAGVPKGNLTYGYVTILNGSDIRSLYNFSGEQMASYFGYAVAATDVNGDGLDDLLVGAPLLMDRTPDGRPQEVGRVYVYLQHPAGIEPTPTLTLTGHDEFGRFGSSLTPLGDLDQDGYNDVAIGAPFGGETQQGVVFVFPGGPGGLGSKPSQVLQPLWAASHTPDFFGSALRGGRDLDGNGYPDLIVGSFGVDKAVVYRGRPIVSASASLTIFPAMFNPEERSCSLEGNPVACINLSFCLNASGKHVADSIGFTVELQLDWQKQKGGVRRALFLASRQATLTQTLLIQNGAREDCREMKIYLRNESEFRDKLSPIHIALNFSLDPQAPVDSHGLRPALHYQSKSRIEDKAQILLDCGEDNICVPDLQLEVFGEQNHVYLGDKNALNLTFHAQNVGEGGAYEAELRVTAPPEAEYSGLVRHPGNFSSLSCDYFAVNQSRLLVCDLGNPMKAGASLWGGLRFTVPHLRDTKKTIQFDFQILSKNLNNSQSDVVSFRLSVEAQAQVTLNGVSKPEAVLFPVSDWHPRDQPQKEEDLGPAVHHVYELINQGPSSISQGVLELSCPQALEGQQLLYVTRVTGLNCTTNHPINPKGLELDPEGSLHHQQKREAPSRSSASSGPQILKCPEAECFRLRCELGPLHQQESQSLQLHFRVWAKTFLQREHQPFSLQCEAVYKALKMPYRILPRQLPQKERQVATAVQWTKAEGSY
T2 sequence (P05556 21-728 limits assumed): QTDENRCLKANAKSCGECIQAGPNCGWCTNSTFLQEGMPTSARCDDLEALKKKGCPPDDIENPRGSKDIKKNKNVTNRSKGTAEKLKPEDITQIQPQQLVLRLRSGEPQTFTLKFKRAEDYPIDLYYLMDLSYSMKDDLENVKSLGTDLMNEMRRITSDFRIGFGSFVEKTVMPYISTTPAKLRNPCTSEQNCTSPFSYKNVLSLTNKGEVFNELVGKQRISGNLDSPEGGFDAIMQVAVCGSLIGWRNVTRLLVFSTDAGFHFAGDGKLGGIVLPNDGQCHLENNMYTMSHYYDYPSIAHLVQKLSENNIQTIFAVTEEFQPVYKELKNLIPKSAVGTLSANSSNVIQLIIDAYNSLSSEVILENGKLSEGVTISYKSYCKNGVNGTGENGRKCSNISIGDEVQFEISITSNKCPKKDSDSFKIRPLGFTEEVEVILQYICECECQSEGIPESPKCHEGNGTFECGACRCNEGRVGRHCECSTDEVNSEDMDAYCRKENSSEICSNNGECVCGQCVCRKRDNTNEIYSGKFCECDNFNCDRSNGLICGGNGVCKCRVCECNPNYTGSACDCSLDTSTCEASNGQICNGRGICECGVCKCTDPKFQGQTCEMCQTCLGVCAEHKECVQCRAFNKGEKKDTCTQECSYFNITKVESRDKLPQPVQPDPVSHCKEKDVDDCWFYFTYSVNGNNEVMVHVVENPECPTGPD
T1 sequence (P06756 31-992 limits assumed): as the sequence (P06756 31-992 limits assumed) above
T1 sequence (P18084 24-719 limits assumed): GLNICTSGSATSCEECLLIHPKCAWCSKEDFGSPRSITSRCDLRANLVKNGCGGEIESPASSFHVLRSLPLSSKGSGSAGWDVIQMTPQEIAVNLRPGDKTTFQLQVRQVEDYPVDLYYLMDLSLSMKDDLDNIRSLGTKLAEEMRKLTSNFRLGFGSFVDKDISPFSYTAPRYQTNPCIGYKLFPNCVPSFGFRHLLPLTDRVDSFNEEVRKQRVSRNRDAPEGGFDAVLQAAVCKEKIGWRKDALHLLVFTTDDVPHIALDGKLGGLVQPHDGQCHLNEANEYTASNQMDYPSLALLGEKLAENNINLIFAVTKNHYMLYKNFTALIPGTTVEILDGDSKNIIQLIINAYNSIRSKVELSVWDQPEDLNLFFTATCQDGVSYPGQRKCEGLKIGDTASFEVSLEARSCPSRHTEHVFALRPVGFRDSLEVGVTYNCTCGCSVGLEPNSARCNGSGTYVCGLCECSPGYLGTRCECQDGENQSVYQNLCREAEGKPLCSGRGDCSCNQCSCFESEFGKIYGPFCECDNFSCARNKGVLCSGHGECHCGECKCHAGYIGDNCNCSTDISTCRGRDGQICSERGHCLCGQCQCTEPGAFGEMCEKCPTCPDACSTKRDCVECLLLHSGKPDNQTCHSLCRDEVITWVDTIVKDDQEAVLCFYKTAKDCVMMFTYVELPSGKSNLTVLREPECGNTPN

Structure (SMILES)	Radioactivity accumulation in αVβ5 protein, treatment versus inhibitor group [1]	Radioactivity accumulation in α5β1 protein, treatment versus inhibitor group [2]	Radioactivity accumulation in αVβ3 protein [3]	Radioactivity accumulation in αVβ3 protein with cyclo-(RGDfK) blocking versus free [3]
N=C(N)NCCC[C@@H]1NC(=O)[C@H]2CSCc3cc(cc(c3)CSC[C@H](C(N)=O)NC(=O)[C@H](CC(=O)O)NC(=O)CNC1=O)CSC[C@H](NC(=O)CNC(=O)[C@H](CO)NC(=O)c1ccc(NC(=O)CNC(=O)[C@H](CO)NC(=O)[C@@H]3CCCN3C(=O)[C@@H]3CCCN3C(=O)[C@@H]3CCCN3C(=O)[C@H](CCCCNC(=O)c3cccc(I)c3)NC(=O)CCCc3ccc(I)cc3)cc1)C(=O)N[C@@H](Cc1c[nH]cn1)C(=O)N1CCC[C@H]1C(=O)N[C@@H](CCC(N)=O)C(=O)N2 [[^125I]bcRGDiba] ({Butanoyl(4-(4-I-phenyl))}-K(Benzoyl(3-I))PPPSG[4Abz]SGCHPQ[dC]RGD[dC]-NH2; linker 10-14-18 via TBMB)	No differences	No differences	high radioactivity accumulation	significantly inhibited
CCCCCCCCCCCCCCCC(=O)N[C@@H](CCCCNC(=O)c1cccc(I)c1)C(=O)N1CCC[C@H]1C(=O)N1CCC[C@H]1C(=O)N1CCC[C@H]1C(=O)N[C@@H](CO)C(=O)NCC(=O)Nc1ccc(C(=O)N[C@@H](CO)C(=O)NCC(=O)N[C@H]2CSCc3cc4cc(c3)CSC[C@@H](NC(=O)[C@H](CCC(N)=O)NC(=O)[C@@H]3CCCN3C(=O)[C@H](Cc3c[nH]cn3)NC2=O)C(=O)N[C@@H](CCCNC(=N)N)C(=O)NCC(=O)N[C@@H](CC(=O)O)C(=O)N[C@@H](C(N)=O)CSC4)cc1 [[^125I]bcRGDpal] (Palmitoyl-K(Benzoyl(3-I))PPPSG[4Abz]SGCHPQ[dC]RGD[dC]-NH2; linker 10-14-18 via TBMB)	No differences	No differences	high radioactivity accumulation	significantly inhibited
